In general, IC50 refers to the concentration at which inhibition is half-maximal. High values mean lower potency, low ones higher potency.

The results in this text go back to ChEMBL document CHEMBL1145177, “Further naphthylcombretastatins. An investigation on the role of the naphthalene moiety” (J Med Chem, 2005).

One experiment relates to HT-29. Briefly: Inhibitory concentration value against human colon adenocarcinoma HT-29 tumor cell line. It counts as functional, cell-based.
The test system of the next experiment is P388. Briefly: Inhibitory concentration value against murine P-388 tumor cell line. In kind it is functional, cell-based. The following applies: Mus musculus.
Experiment [1] can be described thus: Inhibitory concentration value against human MEL-28 or human cancer HeLa tumor cell line. It counts as functional, cell-based.
A further experiment relates to A549. As to the kind of experiment: Inhibitory concentration value against human A-549 tumor cell line. It counts as functional, cell-based.
In the next experiment the test system is HL-60. As to the kind of experiment: Inhibitory concentration value against human colon carcinoma H-116 or human cancer HL-60 tumor cell line. In kind it is functional, cell-based.
The test system of a further experiment is SK-MEL-28. As to the kind of experiment: Inhibitory concentration value against human MEL-28 tumor cell line. It counts as functional, cell-based.
Another experiment relates to HCT-116. Briefly: Inhibitory concentration value against human colon carcinoma H-116 tumor cell line. In kind it is functional, cell-based.
In a further experiment the target is Tubulin beta chain (Bos taurus, UniProt Q6B856). Briefly: In vitro inhibitory concentration value against bovine brain tubulin polymerization.
Chain of Tubulin beta chain (Q6B856 whole entry): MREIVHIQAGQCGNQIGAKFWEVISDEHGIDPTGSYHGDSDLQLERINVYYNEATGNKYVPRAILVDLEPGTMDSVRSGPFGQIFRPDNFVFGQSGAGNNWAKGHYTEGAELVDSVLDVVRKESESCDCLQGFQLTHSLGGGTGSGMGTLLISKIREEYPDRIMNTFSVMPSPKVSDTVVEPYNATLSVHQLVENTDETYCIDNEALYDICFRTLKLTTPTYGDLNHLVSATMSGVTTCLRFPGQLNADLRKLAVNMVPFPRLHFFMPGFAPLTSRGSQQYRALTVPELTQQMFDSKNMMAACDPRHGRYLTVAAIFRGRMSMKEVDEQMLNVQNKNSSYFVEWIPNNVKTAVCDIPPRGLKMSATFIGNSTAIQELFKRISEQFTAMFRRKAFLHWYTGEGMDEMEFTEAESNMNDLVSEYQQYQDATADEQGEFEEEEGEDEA

With `COc1cc(/C=C\c2ccc3ccccc3c2)cc(NC(C)=O)c1OC`, the IC50 (in the experiment on HT-29; in the experiment with P388; in experiment [1]; with A549; in the experiment with HL-60) was more than 5000 nM in each case.
For `COc1ccc(/C=C\c2cc(OC)c3ccccc3c2)cc1O`, the IC50 in the experiment with HT-29 amounted to 3620 nM; in the experiment with SK-MEL-28, 40 nM; in the experiment with P388, 40 nM; in experiment [1], 40 nM; in the experiment with A549 it was 40 nM; in the experiment on HL-60, 3620 nM. In addition, the figures for the IC50 in the experiment on HCT-116 and against Tubulin beta chain were 40 nM and 16000 nM, respectively.
`COc1cc(/C=C/c2c[nH]c3ccccc23)cc(OC)c1OC`: the IC50 (with HT-29; in the experiment with P388; in experiment [1]; in the experiment with A549; in the experiment on HL-60) was 3230 nM each time.
Take `COc1cc(/C=C\c2ccc3c(ccn3C)c2)cc(OC)c1OC`: the values for the IC50 (in experiment [1]; in the experiment on HL-60; on Tubulin beta chain) were 250 nM, 330 nM and 2000 nM, respectively.
Turning to `COc1cc(/C=C/c2ccc3ccccc3c2)cc(N)c1OC`, the IC50 is 6000 nM in the experiment with HT-29; 460 nM in experiment [1]; 2150 nM in the experiment with A549; 3150 nM with HL-60; more than 40000 nM at Tubulin beta chain.
In the case of `COc1cccc(/C=C\c2ccc3ccccc3c2)c1`, the IC50 is 1920 nM with HT-29; 1920 nM in the experiment on SK-MEL-28; 1920 nM with P388; 1920 nM in the experiment with A549; 1920 nM in the experiment on HCT-116; more than 30000 nM on Tubulin beta chain.
Consider `COc1c(N)cc(/C=C\c2ccc3ccccc3c2)cc1N`, for which the IC50 is more than 5000 nM with HT-29; 5000 nM in the experiment with P388; more than 5000 nM in experiment [1]; more than 5000 nM with A549; 5000 nM with HL-60.
In the case of `COc1c([N+](=O)[O-])cc(/C=C\c2ccc3ccccc3c2)cc1[N+](=O)[O-]`, the IC50 (in the experiment on HT-29; in the experiment with P388; in experiment [1]; in the experiment with A549; with HL-60) was more than 5000 nM in each case.
As to `COc1ccc(/C=C/c2cc(OC)c3ccccc3c2)cc1O`, the IC50 (in the experiment with HT-29; in the experiment with SK-MEL-28; with P388; in experiment [1]; in the experiment on A549; in the experiment on HL-60) was 3620 nM each time. The compound further came in with an IC50 in the experiment on HCT-116 of 3620 nM.
For the compound `COc1cc(/C=C/c2ccc(N(C)C)c([N+](=O)[O-])c2)cc(OC)c1OC`, the IC50 (in the experiment with HT-29; in the experiment with P388; in experiment [1]; in the experiment with A549; with HL-60) was more than 5000 nM in each case.
As for `COc1cc(/C=C/c2ccc3ccccc3c2)cc(NC(C)=O)c1OC`, the IC50 in the experiment on HT-29 is more than 5000 nM; in the experiment with P388, more than 5000 nM; in experiment [1], more than 5000 nM; in the experiment with A549 it was more than 5000 nM; with HL-60, 2880 nM.
As for `COc1c(N)cc(/C=C/c2ccc3ccccc3c2)cc1N`, the IC50 (with HT-29; in the experiment on P388; in experiment [1]; in the experiment with A549; in the experiment on HL-60) was more than 5000 nM each time.
For the compound `COc1cc(/C=C/c2ccc3[nH]ccc3c2)cc(OC)c1OC`, the IC50 in the experiment with HT-29 is 280 nM; in experiment [1], 250 nM; in the experiment on A549 it was 470 nM; in the experiment with HL-60, 380 nM; on Tubulin beta chain it was more than 30000 nM.
For the compound `COc1cc(/C=C\c2ccc3ccccc3c2)ccc1F`, the IC50 was 450 nM in the experiment with HT-29; 450 nM in the experiment on SK-MEL-28; 450 nM with P388; 450 nM with A549; 450 nM with HCT-116; more than 30000 nM against Tubulin beta chain.
Regarding `CN(C)c1c([N+](=O)[O-])cc(/C=C/c2ccc3ccccc3c2)cc1[N+](=O)[O-]`, the IC50 (in the experiment with HT-29; in the experiment with P388; in experiment [1]; in the experiment with A549; with HL-60) was more than 5000 nM throughout.
Turning to `COc1cc(/C=C/c2cn(C(C)=O)c3ccccc23)cc(OC)c1OC`, the IC50 (in the experiment with HT-29; with P388; in experiment [1]; in the experiment with A549; in the experiment on HL-60) was more than 5000 nM throughout.
In the case of `COc1cc(/C=C/c2cn(C)c3ccccc23)cc(OC)c1OC`, the IC50 (with HT-29; with P388; in experiment [1]; in the experiment with A549; with HL-60) was 3090 nM each time.
With `COc1cc(/C=C\c2ccc3ccccc3c2)cc([N+](=O)[O-])c1OC`, the IC50 worked out at 420 nM in the experiment on HT-29; 110 nM in experiment [1]; 590 nM with A549; 340 nM in the experiment with HL-60; 13000 nM against Tubulin beta chain.
On the same counts, the results for `COc1cc(/C=C\c2ccc(N(C)C)c(N)c2)cc(OC)c1OC` are 4 nM, 3 nM, 4 nM, 3 nM and more than 30000 nM.
With `COc1cc(/C=C\c2ccc3ccccc3c2)cc(N)c1OC`, the IC50 worked out at 330 nM in the experiment with HT-29; 1640 nM with P388; 1640 nM in experiment [1]; 1640 nM in the experiment on A549; 330 nM in the experiment on HL-60.
As for `COc1c([N+](=O)[O-])cc(/C=C/c2ccc3ccccc3c2)cc1[N+](=O)[O-]`, the IC50 (with HT-29; in the experiment with P388; in experiment [1]; with A549; in the experiment on HL-60) was more than 5000 nM throughout.
For the compound `COc1cc(/C=C/c2occc2C)cc(OC)c1OC`, the IC50 (in the experiment on HT-29; in the experiment with P388; in experiment [1]; with A549; in the experiment on HL-60) was 3650 nM throughout.
In the case of `COc1cc(/C=C/c2ccc3c(ccn3S(=O)(=O)c3ccccc3)c2)cc(OC)c1OC`, the IC50 (in the experiment on HT-29; in the experiment on P388; in experiment [1]; in the experiment with A549; in the experiment with HL-60) was more than 5000 nM throughout.
As for `COc1cc(/C=C/c2ccc3ccccc3c2)cc([N+](=O)[O-])c1OC`, the concentration for half-maximal inhibition (IC50) in the experiment on HT-29 was more than 10000 nM; in experiment [1], 3200 nM; in the experiment with A549, more than 10000 nM; with HL-60 it was more than 10000 nM; against Tubulin beta chain, more than 40000 nM.
As for `COc1cc(/C=C/c2ccc(N(C)C)c(N)c2)cc(OC)c1OC`, the IC50 in the experiment on HT-29 was 300 nM; with P388, 1520 nM; in experiment [1], 1520 nM; in the experiment with A549 it was 1520 nM; in the experiment on HL-60 it was 1520 nM.
`CN(C)c1c([N+](=O)[O-])cc(/C=C\c2ccc3ccccc3c2)cc1[N+](=O)[O-]`: the IC50 in the experiment on HT-29 is 2750 nM; with P388, more than 5000 nM; in experiment [1] it was more than 5000 nM; with A549 it was more than 5000 nM; with HL-60 it was 2750 nM.
With `COc1cc(/C=C\c2ccc3c(c2)c2ccccc2n3C)cc(OC)c1OC`, the IC50 in the experiment with HT-29 is more than 10000 nM; in experiment [1] it was 3100 nM; in the experiment on A549, more than 10000 nM; with HL-60, more than 10000 nM; on Tubulin beta chain it was 6000 nM.
As to `COc1cc(/C=C/c2ccc3c(c2)c2ccccc2n3C)cc(OC)c1OC`, the IC50 is 450 nM with HT-29; 330 nM in experiment [1]; 530 nM with A549; 340 nM in the experiment on HL-60; more than 30000 nM at Tubulin beta chain.
Consider `COc1cc2ccc(CCc3ccc4ccccc4c3)cc2cc1O`, for which the IC50 (in the experiment with HT-29; in the experiment on SK-MEL-28; in the experiment on P388; in experiment [1]; with A549; in the experiment with HL-60) was 3590 nM in each case. In addition, the IC50 with HCT-116 came out at 3590 nM.
For `COc1cc(/C=C\c2ccc3[nH]ccc3c2)cc(OC)c1OC`, the IC50 is 35 nM with HT-29; 34 nM in experiment [1]; 390 nM with A549; 35 nM with HL-60; 25000 nM at Tubulin beta chain.
On to `COc1cc(/C=C/c2ccc3c(ccn3C)c2)cc(OC)c1OC`, for which the 50% inhibitory concentration (IC50) came to 24 nM in experiment [1], 27 nM in the experiment with HL-60 and 30000 nM at Tubulin beta chain.
Take `COc1cc(CCc2ccc3ccccc3c2)cc(OC)c1OC`: the IC50 (in the experiment with HT-29; in the experiment with SK-MEL-28; in the experiment on P388; in experiment [1]; in the experiment on A549; with HL-60) was 310 nM in each case. Besides, the midpoint of inhibition in the experiment with HCT-116, the IC50, lay at 310 nM.
`COc1cc(/C=C/c2ccc3ccccc3c2)cc(OC)c1OC`: the 50% inhibitory concentration (IC50) (in the experiment on HT-29; in the experiment on SK-MEL-28; with P388; in experiment [1]; in the experiment with A549; in the experiment on HL-60) was 390 nM throughout. The same compound gave an IC50 with HCT-116 of 390 nM.
Regarding `COc1ccc(/C=C\c2ccc3ccccc3c2)cc1O`, the IC50 came to 32 nM in the experiment with HT-29; 3 nM in the experiment with SK-MEL-28; 3 nM in the experiment with P388; 3 nM in experiment [1]; 3 nM with A549; 16 nM in the experiment with HL-60. Moreover, the IC50 in the experiment with HCT-116 was found to be 16 nM; on Tubulin beta chain it was 3000 nM.
Regarding `COc1cc(/C=C\c2ccc3ccccc3c2)cc(OC)c1OC` [NAPHTHYLCOMBRETASTATIN], the IC50 was 20 nM in the experiment with SK-MEL-28; 20 nM in the experiment with P388; 20 nM in experiment [1]; more than 5000 nM in the experiment with HL-60; 20 nM with HCT-116; 10000 nM against Tubulin beta chain.
